Experimental data as given in US20200360352A1, “USE OF RIFAMYCIN-NITROIMIDAZOLE COUPLING MOLECULE” (priority 2019, published 2020).
Values after ≈ are worked out from the molar mass of the structure shown. Like-named read-outs stand apart in the source and are kept apart here.

Assays:
Mycobacterium avium [1] = assay: MIC, micro broth dilution with resazurin readout; assay type: cell-based; conditions: read-out: Minimum Inhibitory Concentration (MIC)
Mycobacterium abscessus [2] = assay: MIC, micro broth dilution with resazurin readout; assay type: cell-based; conditions: Mycobacteroides abscessus, read-out: Minimum Inhibitory Concentration (MIC)
Mycobacterium kansasii [3] = assay: MIC, micro broth dilution with resazurin readout; assay type: cell-based; conditions: read-out: Minimum Inhibitory Concentration (MIC)
[4] = system: Mycobacterium intracellulare; assay: MIC, micro broth dilution with resazurin readout; assay type: cell-based; conditions: MH Culture Medium, read-out: Minimum Inhibitory Concentration (MIC)
[5] = system: Mycobacterium massiliense; assay: MIC, micro broth dilution with resazurin readout; assay type: cell-based; conditions: Mycobacteroides abscessus, MH Culture Medium, read-out: Minimum Inhibitory Concentration (MIC)
Mycobacterium fortuitum = assay: MIC, micro broth dilution with resazurin readout; assay type: cell-based; conditions: Mycolicibacterium fortuitum, MH Culture Medium, read-out: Minimum Inhibitory Concentration (MIC)
Mycodacterium chelonei = assay: MIC, micro broth dilution with resazurin readout; assay type: cell-based; conditions: MH Culture Medium; Chelonei (standard strain); read-out: Minimum Inhibitory Concentration (MIC)
Mycobacterium avium [6] = assay: MBC, plating of MIC wells and CFU count; assay type: cell-based; conditions: read-out: Minimum Bactericidal Concentration (MBC)
Mycobacterium abscessus [7] = assay: MBC, plating of MIC wells and CFU count; assay type: cell-based; conditions: Mycobacteroides abscessus, read-out: Minimum Bactericidal Concentration (MBC)
Mycobacterium kansasii [8] = assay: MBC, plating of MIC wells and CFU count; assay type: cell-based; conditions: read-out: Minimum Bactericidal Concentration (MBC)
NTM = assay: In-vitro activity against NTM, overall conclusion; assay type: cell-based, nontuberculous mycobacteria; conditions: overall conclusion from Tables 1-3
Procedure: In this embodiment, an inhibitory test is performed on pathogenic bacteria, i.e. Mycobacterium avium, Mycobacterium abscessus and Mycobacterium kansasii belonging to the nontuberculous mycobacteria using the rifamycin-nitroimidazole coupling molecule of the present invention and positive controls, and then Minimum Inhibitory Concentration (MIC) and Minimum Bactericidal Concentration (MBC) are obtained. Clarithromycin, moxifloxacin, amikacin, rifampicin, rifabutin, ciprofloxacin and metronidazole are used as positive controls. The test strains are provided by KnowBio company, and the Chinese clinically isolated strains are derived from Shanghai Pulmonary Hospital.
The inhibitory test of this embodiment is performed by the micro broth dilution method using two different culture mediums: (1) MH (Mueller-Hinton) micro broth dilution method: using MH culture medium (or culture solution), wherein the concentration of calcium and magnesium ions in MH broth (cation-adjusted) is consistent with that in the Guideline of the Clinical and Laboratory Standards Institute (CLSI; M7-A7); and (2) 7H9 micro broth dilution method: using 7H9 culture medium (or culture solution, provided by Sigma-Aldrich).

[9] = 7H9 Broth, Mycobacterium avium Rough
[10] = 7H9 Broth, Mycobacterium avium Smooth
[11] = MH Broth, Mycobacterium avium Rough
[12] = MH Broth, Mycobacterium avium Smooth
[13] = MH Culture Medium, Avium (standard strain)
[14] = MH Culture Medium, clinically isolated strain Avium (S31)
[15] = MH Culture Medium, clinically isolated strain Avium (S123)
[16] = MH Culture Medium, clinically isolated strain Avium (S559)
[17] = MH Culture Medium, clinically isolated strain Avium (S568)
[18] = MH Culture Medium, clinically isolated strain Avium (S577)
[19] = MH Culture Medium, clinically isolated strain Avium (S597)
[20] = MH Culture Medium, clinically isolated strain Avium (S602)
[21] = MH Culture Medium, Kansasii (standard strain)
[22] = MH Culture Medium, clinically isolated strain Kansasii (S9)
[23] = MH Culture Medium, clinically isolated strain Kansasii (S199)
[24] = MH Culture Medium, clinically isolated strain Kansasii (S520)
[25] = MH Culture Medium, clinically isolated strain Kansasii (S609)
[26] = Intracellulare (standard strain)
[27] = clinically isolated strain Intracellulare (S90)
[28] = clinically isolated strain Intracellulare (S261)
[29] = clinically isolated strain Intracellulare (S269)
[30] = clinically isolated strain Intracellulare (S290)
[31] = clinically isolated strain Intracellulare (S291)
[32] = clinically isolated strain Intracellulare (S298)
[33] = clinically isolated strain Intracellulare (S442)
[34] = clinically isolated strain Intracellulare (S541)
[35] = clinically isolated strain Intracellulare (S623)
[36] = clinically isolated strain Intracellulare (ZPS)
[37] = clinically isolated strain Massiliense (D10)
[38] = clinically isolated strain Massiliense (D14)
[39] = clinically isolated strain Massiliense (D18)
[40] = clinically isolated strain Fortuitum (S103)
[41] = clinically isolated strain Fortuitum (S111)

## CO[C@H]1/C=C/O[C@@]2(C)Oc3c(C)c(O)c4c(c3C2=O)C2=NC3(CCN(CCn5c([N+](=O)[O-])cnc5C)CC3)NC2=C(NC(=O)/C(C)=C\C=C\[C@H](C)[C@H](O)[C@@H](C)[C@@H](O)[C@@H](C)[C@H](OC(C)=O)[C@@H]1C)C4=O [Compound I]
Mycobacterium avium [1]; [9]
  MIC: 4 µg/mL (≈ 4.24 µM)
Mycobacterium avium [1]; [10]
  MIC: 4 µg/mL (≈ 4.24 µM)
Mycobacterium avium [1]; [11]
  MIC: 4 µg/mL (≈ 4.24 µM)
Mycobacterium avium [1]; [12]
  MIC: 4 µg/mL (≈ 4.24 µM)
Mycobacterium avium [1]; [13]
  MIC: 0.0625 µg/mL (≈ 0.0662 µM)
Mycobacterium avium [1]; [14]
  MIC: 0.0625 µg/mL (≈ 0.0662 µM)
Mycobacterium avium [1]; [15]
  MIC: 0.0625 µg/mL (≈ 0.0662 µM)
Mycobacterium avium [1]; [16]
  MIC: 0.0625 µg/mL (≈ 0.0662 µM)
Mycobacterium avium [1]; [17]
  MIC: 0.25 µg/mL (≈ 0.265 µM)
Mycobacterium avium [1]; [18]
  MIC: 0.0625 µg/mL (≈ 0.0662 µM)
Mycobacterium avium [1]; [19]
  MIC: 0.125 µg/mL (≈ 0.132 µM)
Mycobacterium avium [1]; [20]
  MIC: 0.0625 µg/mL (≈ 0.0662 µM)
Mycobacterium abscessus [2]; 7H9 Broth
  MIC: 1 µg/mL (≈ 1.06 µM)
Mycobacterium abscessus [2]; MH Broth
  MIC: 1 µg/mL (≈ 1.06 µM)
Mycobacterium kansasii [3]; 7H9 Broth
  MIC: 2 µg/mL (≈ 2.12 µM)
Mycobacterium kansasii [3]; MH Broth
  MIC: 2 µg/mL (≈ 2.12 µM)
Mycobacterium kansasii [3]; [21]
  MIC: 0.0625 µg/mL (≈ 0.0662 µM)
Mycobacterium kansasii [3]; [22]
  MIC: 0.0625 µg/mL (≈ 0.0662 µM)
Mycobacterium kansasii [3]; [23]
  MIC: 0.0625 µg/mL (≈ 0.0662 µM)
Mycobacterium kansasii [3]; [24]
  MIC: 0.0625 µg/mL (≈ 0.0662 µM)
Mycobacterium kansasii [3]; [25]
  MIC: 0.0625 µg/mL (≈ 0.0662 µM)
[4]; [26]
  MIC: 0.0625 µg/mL (≈ 0.0662 µM)
[4]; [27]
  MIC: 0.25 µg/mL (≈ 0.265 µM)
[4]; [28]
  MIC: 0.25 µg/mL (≈ 0.265 µM)
[4]; [29]
  MIC: 0.125 µg/mL (≈ 0.132 µM)
[4]; [30]
  MIC: 0.25 µg/mL (≈ 0.265 µM)
[4]; [31]
  MIC: 0.125 µg/mL (≈ 0.132 µM)
[4]; [32]
  MIC: 0.25 µg/mL (≈ 0.265 µM)
[4]; [33]
  MIC: 0.0625 µg/mL (≈ 0.0662 µM)
[4]; [34]
  MIC: 0.125 µg/mL (≈ 0.132 µM)
[4]; [35]
  MIC: 0.25 µg/mL (≈ 0.265 µM)
[4]; [36]
  MIC: 0.0625 µg/mL (≈ 0.0662 µM)
[5]; [37]
  MIC: 64 µg/mL (≈ 67.8 µM)
[5]; [38]
  MIC: 64 µg/mL (≈ 67.8 µM)
[5]; [39]
  MIC: 64 µg/mL (≈ 67.8 µM)
Mycobacterium fortuitum; Fortuitum (standard strain)
  MIC: 16 µg/mL (≈ 16.9 µM)
Mycobacterium fortuitum; [40]
  MIC: > 64 µg/mL
Mycobacterium fortuitum; [41]
  MIC: 4 µg/mL (≈ 4.24 µM)
Mycodacterium chelonei
  MIC: 32 µg/mL (≈ 33.9 µM)
Mycobacterium avium [6]; [9]
  MBC: 4 µg/mL (≈ 4.24 µM)
Mycobacterium avium [6]; [10]
  MBC: 16 µg/mL (≈ 16.9 µM)
Mycobacterium avium [6]; [11]
  MBC: 4 µg/mL (≈ 4.24 µM)
Mycobacterium avium [6]; [12]
  MBC: 16 µg/mL (≈ 16.9 µM)
Mycobacterium abscessus [7]; 7H9 Broth
  MBC: 1 µg/mL (≈ 1.06 µM)
Mycobacterium abscessus [7]; MH Broth
  MBC: 16 µg/mL (≈ 16.9 µM)
Mycobacterium kansasii [8]; 7H9 Broth
  MBC: 8 µg/mL (≈ 8.47 µM)
Mycobacterium kansasii [8]; MH Broth
  MBC: 2 µg/mL (≈ 2.12 µM)
NTM
  in-vitro activity against NTM: effective and broad in-vitro activity against NTM

## CO[C@H]1/C=C/O[C@@]2(C)Oc3c(C)c(O)c4c(O)c(c(/C=N/N5CCN(C)CC5)c(O)c4c3C2=O)NC(=O)/C(C)=C\C=C\[C@H](C)[C@H](O)[C@@H](C)[C@@H](O)[C@@H](C)[C@H](OC(C)=O)[C@@H]1C [Rifampicin]
Mycobacterium avium [1]; [9]
  MIC: 8 µg/mL (≈ 9.72 µM)
Mycobacterium avium [1]; [10]
  MIC: 0.5 µg/mL (≈ 0.608 µM)
Mycobacterium avium [1]; [11]
  MIC: 8 µg/mL (≈ 9.72 µM)
Mycobacterium avium [1]; [12]
  MIC: 1 µg/mL (≈ 1.22 µM)
Mycobacterium avium [1]; [13]
  MIC: 0.25 µg/mL (≈ 0.304 µM)
Mycobacterium avium [1]; [14]
  MIC: 0.0625 µg/mL (≈ 0.0759 µM)
Mycobacterium avium [1]; [15]
  MIC: 8 µg/mL (≈ 9.72 µM)
Mycobacterium avium [1]; [16]
  MIC: 0.125 µg/mL (≈ 0.152 µM)
Mycobacterium avium [1]; [17]
  MIC: 4 µg/mL (≈ 4.86 µM)
Mycobacterium avium [1]; [18]
  MIC: 0.125 µg/mL (≈ 0.152 µM)
Mycobacterium avium [1]; [19]
  MIC: 8 µg/mL (≈ 9.72 µM)
Mycobacterium avium [1]; [20]
  MIC: 2 µg/mL (≈ 2.43 µM)
Mycobacterium abscessus [2]; 7H9 Broth
  MIC: > 64 µg/mL
Mycobacterium abscessus [2]; MH Broth
  MIC: > 64 µg/mL
Mycobacterium kansasii [3]; 7H9 Broth
  MIC: 16 µg/mL (≈ 19.4 µM)
Mycobacterium kansasii [3]; MH Broth
  MIC: 16 µg/mL (≈ 19.4 µM)
Mycobacterium kansasii [3]; [21]
  MIC: 0.125 µg/mL (≈ 0.152 µM)
Mycobacterium kansasii [3]; [22]
  MIC: 0.125 µg/mL (≈ 0.152 µM)
Mycobacterium kansasii [3]; [23]
  MIC: 0.0625 µg/mL (≈ 0.0759 µM)
Mycobacterium kansasii [3]; [24]
  MIC: 0.0625 µg/mL (≈ 0.0759 µM)
Mycobacterium kansasii [3]; [25]
  MIC: 0.0625 µg/mL (≈ 0.0759 µM)
[4]; [26]
  MIC: 0.25 µg/mL (≈ 0.304 µM)
[4]; [27]
  MIC: 8 µg/mL (≈ 9.72 µM)
[4]; [28]
  MIC: 16 µg/mL (≈ 19.4 µM)
[4]; [29]
  MIC: 4 µg/mL (≈ 4.86 µM)
[4]; [30]
  MIC: 4 µg/mL (≈ 4.86 µM)
[4]; [31]
  MIC: 4 µg/mL (≈ 4.86 µM)
[4]; [32]
  MIC: 4 µg/mL (≈ 4.86 µM)
[4]; [33]
  MIC: 2 µg/mL (≈ 2.43 µM)
[4]; [34]
  MIC: 16 µg/mL (≈ 19.4 µM)
[4]; [35]
  MIC: 8 µg/mL (≈ 9.72 µM)
[4]; [36]
  MIC: 2 µg/mL (≈ 2.43 µM)
[5]; [37]
  MIC: > 64 µg/mL
[5]; [38]
  MIC: > 64 µg/mL
[5]; [39]
  MIC: > 64 µg/mL
Mycobacterium fortuitum; Fortuitum (standard strain)
  MIC: > 64 µg/mL
Mycobacterium fortuitum; [40]
  MIC: > 64 µg/mL
Mycobacterium fortuitum; [41]
  MIC: 64 µg/mL (≈ 77.8 µM)
Mycodacterium chelonei
  MIC: > 64 µg/mL
Mycobacterium avium [6]; [9]
  MBC: > 64 µg/mL
Mycobacterium avium [6]; [10]
  MBC: 4 µg/mL (≈ 4.86 µM)
Mycobacterium avium [6]; [12]
  MBC: 4 µg/mL (≈ 4.86 µM)
Mycobacterium abscessus [7]; 7H9 Broth
  MBC: > 64 µg/mL
Mycobacterium abscessus [7]; MH Broth
  MBC: > 64 µg/mL
Mycobacterium kansasii [8]; 7H9 Broth
  MBC: 4 µg/mL (≈ 4.86 µM)
Mycobacterium kansasii [8]; MH Broth
  MBC: 4 µg/mL (≈ 4.86 µM)
